Assay results published in ChEMBL document CHEMBL1136220, “Synthesis and cytotoxic activity of A-ring modified betulinic acid derivatives” (2003).
≈ marks a conversion by molar mass, not a printed value.

What was measured:
Format in all cases: functional
[1] = test system: A549; assay: Cytotoxic activity towards A-549 cells; details: Homo sapiens, read-out: ED50 (the source's name)
[2] = test system: B16-F10; assay: Cytotoxic activity towards B16-F10 cells; details: Mus musculus, read-out: ED50 (the source's name)
[3] = test system: SK-MEL-2; assay: Cytotoxic activity towards M2 cells (SK-MEL-2); details: Homo sapiens, read-out: ED50 (the source's name)

Structure (SMILES)	EC50 [1] [µg/mL]	EC50 [2] [µg/mL]	EC50 [3] [µg/mL]
COC(=O)[C@]12CC[C@@H](C(C)C)C1C1CC[C@@H]3[C@@]4(C)C=C(OC)C(=O)C(C)(C)C4CC[C@@]3(C)[C@]1(C)CC2 (stereo not given in full)	> 30	> 30	> 30
CC(C)[C@@H]1CC[C@]2(C(=O)O)CC[C@]3(C)C(CC[C@@H]4[C@@]5(C)CC(C=O)=C(O)C(C)(C)C5CC[C@]43C)C12 (stereo not given in full)	2.2 (≈ 4.54 µM)	1.66 (≈ 3.42 µM)	3.76 (≈ 7.76 µM)
COC(=O)[C@]12CC[C@@H](C(C)C)C1C1CC[C@@H]3[C@@]4(C)Cc5cnoc5C(C)(C)C4CC[C@@]3(C)[C@]1(C)CC2 (stereo not given in full)	> 30	> 30	> 30
CC(C)[C@@H]1CC[C@]2(C(=O)O)CC[C@]3(C)C(CC[C@@H]4[C@@]5(C)Cc6cnoc6C(C)(C)C5CC[C@]43C)C12 (stereo not given in full)	2.7 (≈ 5.6 µM)	1.57 (≈ 3.26 µM)	1.15 (≈ 2.39 µM)
C=C(C)[C@@H]1CC[C@]2(C(=O)O)CC[C@]3(C)C(CC[C@@H]4[C@@]5(C)CC(C=O)=C(O)C(C)(C)C5CC[C@]43C)C12 (stereo not given in full)	2.76 (≈ 5.72 µM)	> 30	> 30
C=C(C)[C@@H]1CC[C@]2(C(=O)OC)CC[C@]3(C)C(CC[C@@H]4[C@@]5(C)CC(C=O)=C(O)C(C)(C)C5CC[C@]43C)C12 (stereo not given in full)	> 30	> 30	> 30
COC(=O)[C@]12CC[C@@H](C(C)C)C1C1CC[C@@H]3[C@@]4(C)C=C(Cl)C(=O)C(C)(C)C4CC[C@@]3(C)[C@]1(C)CC2 (stereo not given in full)	> 30	> 30	> 30
COC(=O)[C@]12CC[C@@H](C(C)C)C1C1CC[C@@H]3[C@@]4(C)C=C(C#N)C(=O)C(C)(C)C4CC[C@@]3(C)[C@]1(C)CC2 (stereo not given in full)	13 (≈ 26.3 µM)	0.8 (≈ 1.62 µM)	1.25 (≈ 2.53 µM)
COC(=O)[C@]12CC[C@@H](C(C)C)C1C1CC[C@@H]3[C@@]4(C)C=C(C=O)C(=O)C(C)(C)C4CC[C@@]3(C)[C@]1(C)CC2 (stereo not given in full)	0.31 (≈ 0.624 µM)	0.29 (≈ 0.584 µM)	0.73 (≈ 1.47 µM)
CC(C)[C@@H]1CC[C@]2(C(=O)O)CC[C@]3(C)C(CC[C@@H]4[C@@]5(C)C=CC(=O)C(C)(C)C5CC[C@]43C)C12 (stereo not given in full)	2.89 (≈ 6.36 µM)	1.75 (≈ 3.85 µM)	2.29 (≈ 5.04 µM)
C=C(C)[C@@H]1CC[C@]2(C(=O)O)CC[C@]3(C)C(CC[C@@H]4[C@@]5(C)Cc6cnoc6C(C)(C)C5CC[C@]43C)C12 (stereo not given in full)	1.54 (≈ 3.21 µM)	3.11 (≈ 6.48 µM)	16.6 (≈ 34.6 µM)
C=C(C)[C@@H]1CC[C@]2(C(=O)OC)CC[C@]3(C)C(CC[C@@H]4[C@@]5(C)C=C(C#N)C(=O)C(C)(C)C5CC[C@]43C)C12 (stereo not given in full)	4.55 (≈ 9.25 µM)	3.57 (≈ 7.26 µM)	2.12 (≈ 4.31 µM)
CC(C)[C@@H]1CC[C@]2(C(=O)O)CC[C@]3(C)C(CC[C@@H]4[C@@]5(C)C=C(Cl)C(=O)C(C)(C)C5CC[C@]43C)C12 (stereo not given in full)	1.01 (≈ 2.06 µM)	1.55 (≈ 3.17 µM)	0.13 (≈ 0.266 µM)
COC(=O)[C@]12CC[C@@H](C(C)C)C1C1CCC3[C@]4(C)C(CC[C@@]3(C)[C@]1(C)CC2)C(C)(C)C(=O)[C@@H]1O[C@@H]14 (stereo not given in full)	> 30	> 30	> 30
COC(=O)[C@]12CC[C@@H](C(C)C)C1C1CC[C@@H]3[C@@]4(C)CC(C=O)=C(O)C(C)(C)C4CC[C@@]3(C)[C@]1(C)CC2 (stereo not given in full)	> 30	> 30	> 30
CC(C)[C@@H]1CC[C@]2(C(=O)O)CC[C@]3(C)C(CC[C@@H]4[C@@]5(C)C=C(C=O)C(=O)C(C)(C)C5CC[C@]43C)C12 (stereo not given in full)	0.17 (≈ 0.352 µM)	0.3 (≈ 0.621 µM)	0.26 (≈ 0.539 µM)
CC(C)[C@@H]1CC[C@]2(C(=O)O)CC[C@]3(C)C(CC[C@@H]4[C@@]5(C)C=C(C#N)C(=O)C(C)(C)C5CC[C@]43C)C12 (stereo not given in full)	1.32 (≈ 2.75 µM)	1.43 (≈ 2.98 µM)	0.81 (≈ 1.69 µM)
COC(=O)[C@]12CC[C@@H](C(C)C)C1C1CC[C@@H]3[C@@]4(C)C=CC(=O)C(C)(C)C4CC[C@@]3(C)[C@]1(C)CC2 (stereo not given in full)	> 30	> 30	> 30
C=C(C)[C@@H]1CC[C@]2(C(=O)OC)CC[C@]3(C)C(CC[C@@H]4[C@@]5(C)Cc6cnoc6C(C)(C)C5CC[C@]43C)C12 (stereo not given in full)	> 30	> 30	> 30
C=C(C)[C@@H]1CC[C@]2(C(=O)O)CC[C@]3(C)[C@H](CC[C@@H]4[C@@]5(C)CC[C@H](O)C(C)(C)[C@@H]5CC[C@]43C)[C@@H]12 [BETULINIC ACID]	7.7 (≈ 16.9 µM)	4.98 (≈ 10.9 µM)	7.62 (≈ 16.7 µM)
